Results taken from publication PMC11129182, “Development of Inhibitors, Probes, and PROTAC Provides a Complete Toolbox to Study PARK7 in the Living Cell” (Journal of Medicinal Chemistry, 2024).

Biological target: T1, PARK7 (Homo sapiens, UniProt Q99497)
T1 sequence (Q99497 1-189): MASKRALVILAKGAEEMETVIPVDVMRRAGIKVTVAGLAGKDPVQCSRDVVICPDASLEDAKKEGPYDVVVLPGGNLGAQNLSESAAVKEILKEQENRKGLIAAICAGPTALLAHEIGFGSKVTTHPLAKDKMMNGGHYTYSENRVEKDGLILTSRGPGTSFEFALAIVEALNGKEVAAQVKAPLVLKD
Assay: High-throughput screen of the crude compound library, PARK7 fluorescence polarization (FP) assay with FP reagent JYQ-107
Assay type: biochemical
Conditions: 1.25 µM, crude compound library; read-out: HTS FP assay %Inhibition (1.25 µM)
Text: Therefore, taking JYQ-88 as a starting point, we conducted an optimization to further improve the molecule in terms of inhibitory potency, specificity, and cellular uptake. […] First, a small tailored library was designed and synthesized to investigate whether the introduction of larger, hydrophilic substituents on JYQ-88 would enhance the interaction with the PARK7 pocket. […] The second approach involved the generation of a compound library containing diverse substituents at the azidomethyl position. […] We next performed a high-throughput screen of this crude compound library using our in-house developed PARK7 fluorescence polarization (FP) assay.[15]

Row | SMILES | inhibition at 1.25 µM [%]
1 | N#CN1CC[C@@H](C(=O)Nc2nc3c(s2)CN(C(=O)c2ccc(OCn4cc(Cl)cn4)cc2)CC3)C1 [compound 147] | 82.4
2 | N#CN1CC[C@@H](C(=O)Nc2nc3c(s2)CN(C(=O)Cc2cnn(-c4ccccc4)c2)CC3)C1 [compound 148] | 80.2
3 | CCS(=O)(=O)N1CCC(C(=O)N2CCc3nc(NC(=O)[C@@H]4CCN(C#N)C4)sc3C2)(c2ccccc2)CC1 [compound 150] | 62.5
4 | N#CN1CC[C@@H](C(=O)Nc2nc3c(s2)CN(C(=O)c2ccc(CNS(=O)(=O)c4ccc(F)c(F)c4F)cc2)CC3)C1 [compound 151] | 81.1
5 | CC1CCCC(N2CC(C(=O)N3CCc4nc(NC(=O)[C@@H]5CCN(C#N)C5)sc4C3)CC2=O)C1C (stereo partly shown) [compound 153] | 64.4
6 | N#CN1CC[C@@H](C(=O)Nc2nc3c(s2)CN(C(=O)c2csc(-c4cnc[nH]4)n2)CC3)C1 [compound 154] | 77.3
7 | Cc1cc(C(=O)N2CCc3nc(NC(=O)[C@@H]4CCN(C#N)C4)sc3C2)c(C)n1C1CC1 [compound 155] | 47.7
8 | CN(CC(=O)N1CCCC(C(=O)N2CCc3nc(NC(=O)[C@@H]4CCN(C#N)C4)sc3C2)C1)c1ccc(Cl)cn1 (stereo partly shown) [compound 157] | 83.5
9 | N#CN1CC[C@@H](C(=O)Nc2nc3c(s2)CN(C(=O)C2CCN(C(=O)c4ccccn4)CC2)CC3)C1 [compound 158] | 69.2
10 | N#CN1CC[C@@H](C(=O)Nc2nc3c(s2)CN(C(=O)c2ccc(Cn4cncn4)cc2)CC3)C1 [compound 159] | 80.2
11 | N#CN1CC[C@@H](C(=O)Nc2nc3c(s2)CN(C(=O)c2cc(Cl)nc(N4CCCC4)c2)CC3)C1 [compound 160] | 74.9
12 | Cc1nc(-c2c[nH]c(C(=O)N3CCc4nc(NC(=O)[C@@H]5CCN(C#N)C5)sc4C3)c2)cs1 [compound 161] | 86.4
13 | N#CN1CC[C@@H](C(=O)Nc2nc3c(s2)CN(C(=O)Cc2ccn(-c4ccccc4)n2)CC3)C1 [compound 162] | 82.9
14 | N#CN1CC[C@@H](C(=O)Nc2nc3c(s2)CN(C(=O)c2ccc(-c4ccccc4)o2)CC3)C1 [compound 166] | 87.3
15 | N#CN1CC[C@@H](C(=O)Nc2nc3c(s2)CN(C(=O)c2cccnc2N2CCCCC2)CC3)C1 [compound 167] | 69.5
16 | N#CN1CC[C@@H](C(=O)Nc2nc3c(s2)CN(C(=O)C2=NNC(=O)C2c2ccccc2)CC3)C1 (stereo partly shown) [compound 168] | 80.3
17 | Cc1nn(-c2ccc(C(F)(F)F)cn2)c(C)c1CC(=O)N1CCc2nc(NC(=O)[C@@H]3CCN(C#N)C3)sc2C1 [compound 169] | 77.8
18 | Cc1ccc(N2CCCC(C(=O)N3CCc4nc(NC(=O)[C@@H]5CCN(C#N)C5)sc4C3)C2)nc1 (stereo partly shown) [compound 170] | 62.7
19 | N#CN1CC[C@@H](C(=O)Nc2nc3c(s2)CN(C(=O)c2ccc(-c4cnco4)cc2)CC3)C1 [compound 171] | 77.5
20 | Cn1nc(C(=O)N2CCc3nc(NC(=O)[C@@H]4CCN(C#N)C4)sc3C2)cc1-c1cccnc1 [compound 172] | 86.7
21 | Cc1cc(COc2ccc(C(=O)N3CCc4nc(NC(=O)[C@@H]5CCN(C#N)C5)sc4C3)cc2Br)no1 [compound 173] | 72.5

Row | SMILES | inhibition at 1.25 µM [%]
22 | COc1ccc(C(=O)N2CCc3nc(NC(=O)[C@@H]4CCN(C#N)C4)sc3C2)cc1S(=O)(=O)NCCc1ccccn1 [compound 175] | 78.6
23 | Cc1onc(-c2ccccn2)c1C(=O)N1CCc2nc(NC(=O)[C@@H]3CCN(C#N)C3)sc2C1 [compound 176] | 68.5
24 | N#CN1CC[C@@H](C(=O)Nc2nc3c(s2)CN(C(=O)C(=O)N2CCN(c4ccccc4)CC2)CC3)C1 [compound 177] | 78.6
25 | N#CN1CC[C@@H](C(=O)Nc2nc3c(s2)CN(C(=O)C(F)(F)n2cc(-c4ccccc4)nn2)CC3)C1 [compound 178] | 45.6
26 | N#CN1CC[C@@H](C(=O)Nc2nc3c(s2)CN(C(=O)C2Cc4ccccc42)CC3)C1 (stereo partly shown) [compound 179] | 81
27 | N#CN1CC[C@@H](C(=O)Nc2nc3c(s2)CN(C(=O)c2ccnc(N4CCOCC4)n2)CC3)C1 [compound 180] | 87.3
28 | N#CN1CC[C@@H](C(=O)Nc2nc3c(s2)CN(C(=O)C2COCCN2C(=O)OCc2ccccc2)CC3)C1 (stereo partly shown) [compound 181] | 72.7
29 | N#CN1CC[C@@H](C(=O)Nc2nc3c(s2)CN(C(=O)c2cncc(N4CCCC4)n2)CC3)C1 [compound 182] | 81.9
30 | CN(Cc1ccccc1)S(=O)(=O)c1ccc(C(=O)N2CCc3nc(NC(=O)[C@@H]4CCN(C#N)C4)sc3C2)cc1 [compound 183] | 65.5
31 | Cn1nc(-c2cccnc2)cc1C(=O)N1CCc2nc(NC(=O)[C@@H]3CCN(C#N)C3)sc2C1 [compound 184] | 86.9
32 | N#CN1CC[C@@H](C(=O)Nc2nc3c(s2)CN(C(=O)c2cnoc2-c2ccccc2C(F)(F)F)CC3)C1 [compound 185] | 77.5
33 | N#CN1CC[C@@H](C(=O)Nc2nc3c(s2)CN(C(=O)c2cn(CC4CCCO4)nn2)CC3)C1 (stereo partly shown) [compound 186] | 83.8
34 | Cn1cc(-c2cc[nH]n2)c(C(=O)N2CCc3nc(NC(=O)[C@@H]4CCN(C#N)C4)sc3C2)n1 [compound 187] | 59.2
35 | CN1CCN(C(=O)[C@@H]2[C@@H](C(=O)N3CCc4nc(NC(=O)[C@@H]5CCN(C#N)C5)sc4C3)C2(C)C)CC1 [compound 189] | 66.8
36 | Cc1csc(N2CCC(C(=O)N3CCc4nc(NC(=O)[C@@H]5CCN(C#N)C5)sc4C3)CC2)n1 [compound 190] | 51.8
37 | N#CN1CC[C@@H](C(=O)Nc2nc3c(s2)CN(C(=O)c2cc(Cn4cc(Cl)cn4)cs2)CC3)C1 [compound 191] | 86.7
38 | Cc1nc(COc2ccc(C(=O)N3CCc4nc(NC(=O)[C@@H]5CCN(C#N)C5)sc4C3)cc2)no1 [compound 192] | 84.8
39 | CN(Cc1ccnn1C)C(=O)C1CCCCC1C(=O)N1CCc2nc(NC(=O)[C@@H]3CCN(C#N)C3)sc2C1 (stereo partly shown) [compound 193] | 73
40 | COc1ccc(C(=O)N2CCc3nc(NC(=O)[C@@H]4CCN(C#N)C4)sc3C2)cc1S(=O)(=O)NCc1ccccn1 [compound 194] | 80.2
41 | N#CN1CC[C@@H](C(=O)Nc2nc3c(s2)CN(C(=O)c2ccc(CN4CCCCCC4)s2)CC3)C1 [compound 195] | 72.4
42 | Cc1nc(-c2cc(C)n(CCC(=O)N3CCc4nc(NC(=O)[C@@H]5CCN(C#N)C5)sc4C3)c2C)cs1 [compound 196] | 61.7

Row | SMILES | inhibition at 1.25 µM [%]
43 | Cc1noc(C)c1S(=O)(=O)N1CCC(C(=O)N2CCc3nc(NC(=O)[C@@H]4CCN(C#N)C4)sc3C2)CC1 [compound 198] | 65.2
44 | N#CN1CC[C@@H](C(=O)Nc2nc3c(s2)CN(C(=O)c2ccc(-c4cccs4)[nH]c2=O)CC3)C1 [compound 200] | 72.4
45 | N#CN1CC[C@@H](C(=O)Nc2nc3c(s2)CN(C(=O)c2cc(N4CCOCC4)ccn2)CC3)C1 [compound 201] | 72.2
46 | N#CN1CC[C@@H](C(=O)Nc2nc3c(s2)CN(C(=O)Cc2csc(-c4nnc[nH]4)n2)CC3)C1 [compound 202] | 81
47 | N#CN1CC[C@@H](C(=O)Nc2nc3c(s2)CN(C(=O)c2ccc(-n4cccn4)cc2)CC3)C1 [compound 203] | 70.1
48 | Cc1ccccc1COc1cccc(CC(=O)N2CCc3nc(NC(=O)[C@@H]4CCN(C#N)C4)sc3C2)c1 [compound 204] | 73.6
49 | N#CN1CC[C@@H](C(=O)Nc2nc3c(s2)CN(C(=O)c2ccc(S(=O)(=O)Nc4cccc(Cl)c4F)o2)CC3)C1 [compound 205] | 72.5
50 | N#CN1CC[C@@H](C(=O)Nc2nc3c(s2)CN(C(=O)C2CCCN2C(=O)c2ccncc2)CC3)C1 (stereo partly shown) [compound 206] | 50.6
51 | Cc1ccc(S(=O)(=O)N[C@@H](Cc2ccccc2)C(=O)N2CCc3nc(NC(=O)[C@@H]4CCN(C#N)C4)sc3C2)cc1 [compound 207] | 70
52 | N#CN1CC[C@@H](C(=O)Nc2nc3c(s2)CN(C(=O)c2csc(-c4ccc(Br)s4)n2)CC3)C1 [compound 208] | 86.4
53 | N#CN1CC[C@@H](C(=O)Nc2nc3c(s2)CN(C(=O)c2cc(C4CC4)n[nH]2)CC3)C1 [compound 209] | 86.7
54 | N#CN1CC[C@@H](C(=O)Nc2nc3c(s2)CN(C(=O)c2cc(-c4ccncc4)on2)CC3)C1 [compound 210] | 63.9
55 | N#CN1CC[C@@H](C(=O)Nc2nc3c(s2)CN(C(=O)c2ccc(N4CCCC4)c(F)c2)CC3)C1 [compound 211] | 86.4
56 | N#CN1CC[C@@H](C(=O)Nc2nc3c(s2)CN(C(=O)Cc2ccc(OCCOc4ccccc4)cc2)CC3)C1 [compound 212] | 85.1
57 | Cc1cc(C(=O)N2CCc3nc(NC(=O)[C@@H]4CCN(C#N)C4)sc3C2)c(C)n1-c1cccnc1 [compound 213] | 67.7
58 | N#CN1CC[C@@H](C(=O)Nc2nc3c(s2)CN(C(=O)c2csc(-c4ccncc4)n2)CC3)C1 [compound 214] | 59.5
59 | N#CN1CC[C@@H](C(=O)Nc2nc3c(s2)CN(C(=O)C2CN(C(=O)OCc4ccccc4)CCO2)CC3)C1 (stereo partly shown) [compound 216] | 76.7
60 | N#CN1CC[C@@H](C(=O)Nc2nc3c(s2)CN(C(=O)c2cccn2-c2c(Cl)cccc2Cl)CC3)C1 [compound 218] | 69.2
61 | Cn1cc(-c2ccc(C(=O)N3CCc4nc(NC(=O)[C@@H]5CCN(C#N)C5)sc4C3)o2)cn1 [compound 220] | 27.6
